Test results: paper PMC7457137, “An Integrated Pharmacokinetic Study of an Acanthopanax senticosus Extract Preparation by Combination of Virtual Screening, Systems Pharmacology, and Multi-Component Pharmacokinetics in Rats” (Frontiers in Pharmacology, 2020)
Read-outs that look alike come from different tables or passages of the source.

Legend:
[1] = Multi-component PK in rats after i.v. administration of ASEP; assay type: in vivo, Sprague-Dawley rats
Experimental: The animal experiments were conducted in line with the Guide for the Care and Use of Laboratory Animals (published by the USA National Institutes of Health, NIH Publication no. 85-23, revised 1996), which were approved by the Animal Care and Use Committee of the College of Animal Science (College of Bee Science), Fujian Agriculture and Forestry University (Approval Number: […]2019004). […] All rats were acclimated to the facilities and environment for 7 days before the experiments. […] The gradient elution was carried out by the mobile phase water with 0.1% formic acid (A) and methanol (B). […] The column temperature and flow rate were at 35 °C and 0.5 ml/min, resepectively. 5 μl sample solution was injected for the HPLC-MS analysis. The electrospray ionization (ESI) source conditions were as follows: block heating temperature was kept at 400 °C; desolvation line temperature was set at 250 °C; dry gas (nitrogen) flow rate was kept at 15 L/min; and auxiliary gas (nitrogen) flow rate was 3 L/min. […] The plasma samples were separated by centrifugation, followed by storing at -20 °C before analysis. […] A DAS 3.0 software (Chinese Pharmacologic Society, Beijing, China) was used to calculate the noncompartmental PK parameters. All the results were presented as mean ± SD, and statistics analysis was done with a single-tailed Student's t test in the work.

zebrafish model = test system: zebrafish model; set-up: method as in Lin et al., 2017; Hu et al., 2018; details: ref Lin et al., 2017, Hu et al., 2018; cited from earlier work
[2] = test system: human umbilical vein endothelial cells; set-up: method as in Lin et al., 2017; Hu et al., 2018; details: ref Lin et al., 2017, Hu et al., 2018; cited from earlier work
insulin resistance [3] = test system: insulin resistance; set-up: method as in Ma et al., 2015; details: high-fat diet-fed rats; ref Ma et al., 2015; cited from earlier work
[4] = Stability of the compounds in rat plasma (LC-MS validation); assay type: in vitro ADME
Description: According to the “Guidelines for non-clinical pharmacokinetics of drugs” issued by Centre for Drug Evaluation, National Medical Products Administration, China ([Guidelines for non-clinical pharmacokinetics of drugs, 2014]), the LC-MS method was validated by linearity, limits of detection (LOD), limits of quantification (LOQ), precision, accuracy, extraction recovery, matrix effect and stability of the 6 compounds in rat plasma. In brief, blank rat plasma was obtained from the other six rats. The standard mixture solution containing the 6 compounds (with the concentration of 1 mg/ml for each) was diluted with […] to prepare a series of working solution containing the 6 compounds (concentration level: 20, 50, 100, 250, 500 ng/ml and 1, 2.5, 5, 10, 25, 50, 100, 125 150, 200 μg/ml) and IS (2.5μg/ml). For calibration curve, 10 μl of the series of working solution containing the IS (2.5μg/ml) was added into 100 μl of blank plasma. Finally, 15 data points (2, 5, 10, 25, 50, 100, 250, 500 ng/ml and 1, 2.5, 5, 10, 12.5 15, 20 μg/ml) were used in the calibration curve linearity. Calibration curves were plotted by weighted linear regression of the peak area ratio of analyte to the IS against the related nominal concentration of the analyte. LOD and LOQ were defined as the detectable concentration at which the ratio of signal to noise was about 3 and 10, respectively ([Huang et al., 2019]). […] The extraction recovery and matrix effect were also assessed at the above-mentioned three concentration levels for the 6 ingredients in the spiked plasma samples ([Huang et al., 2019]). Stability was examined under the condition of setting un-treated plasma samples at ambient temperature for 6 h, and extracted plasma samples in auto-sampler for 10 h, as well as setting plasma samples for three freeze-thaw cycles and at −80°C for 15 days ([Guidelines for non-clinical pharmacokinetics of drugs, 2014]).

[5] = after ASEP; ref Fan et al., 2015; cited from earlier work
insulin resistance [6] = test system: insulin resistance; set-up: method as in Kim et al., 2017; details: high-fat diet-fed mice; ref Kim et al., 2017; cited from earlier work
AKT = test system: AKT; set-up: method as in Yang et al., 2018; details: down-regulates transcriptional activity of FoxO1; ref Yang et al., 2018; cited from earlier work
[7] = extracted plasma samples, 10h in auto-sampler vials, high spiked level (HQC, 8000-16000 ng/mL)
[8] = extracted plasma samples, 10h in auto-sampler vials, low spiked level (LQC, 5-30 ng/mL)
[9] = extracted plasma samples, 10h in auto-sampler vials, middle spiked level (MQC, 400-1600 ng/mL)
[10] = rat plasma, 6h at room temperature, high spiked level (HQC, 8000-16000 ng/mL)
[11] = rat plasma, 6h at room temperature, low spiked level (LQC, 5-30 ng/mL)
[12] = rat plasma, 6h at room temperature, middle spiked level (MQC, 400-1600 ng/mL)
[13] = rat plasma, freeze-thaw stability (three cycles), high spiked level (HQC, 8000-16000 ng/mL)
[14] = rat plasma, freeze-thaw stability (three cycles), low spiked level (LQC, 5-30 ng/mL)
[15] = rat plasma, freeze-thaw stability (three cycles), middle spiked level (MQC, 400-1600 ng/mL)
[16] = rat plasma, long-term stability (-80℃,15 days), high spiked level (HQC, 8000-16000 ng/mL)
[17] = rat plasma, long-term stability (-80℃,15 days), low spiked level (LQC, 5-30 ng/mL)
[18] = rat plasma, long-term stability (-80℃,15 days), middle spiked level (MQC, 400-1600 ng/mL)
[19] = male, Sprague-Dawley, rat, in vivo, iv

## O=C(/C=C/c1ccc(O)c(O)c1)O[C@@H]1C[C@](O)(C(=O)O)C[C@@H](O)[C@H]1O [3-CQA, 3-caffeoylquinic acid]
[1]; male, Sprague-Dawley, rat, plasma, iv, 1.76 ml/kg, rat plasma, Low group: single i.v. 1.76 ml/kg of 5 times concentrated ASEP, mean ± SD, n=3, read-out: AUC0-t
  AUC(0-t): 1830 ng·h/mL
[1]; male, Sprague-Dawley, rat, plasma, iv, 1.76 ml/kg, rat plasma, Low group: single i.v. 1.76 ml/kg of 5 times concentrated ASEP, mean ± SD, n=3, read-out: AUC0-∞
  AUC(0-inf): 1830 ng·h/mL
[1]; male, Sprague-Dawley, rat, plasma, iv, 1.76 ml/kg, rat plasma, Low group: single i.v. 1.76 ml/kg of 5 times concentrated ASEP, mean ± SD, n=3, read-out: Cl (converted)
  clearance: 8.5 mL/min
[1]; male, Sprague-Dawley, rat, plasma, iv, 1.76 ml/kg, rat plasma, Low group: single i.v. 1.76 ml/kg of 5 times concentrated ASEP, mean ± SD, n=3, read-out: MRT0-t
  MRT last: 25.8 ± 1.2 min
[1]; male, Sprague-Dawley, rat, plasma, iv, 1.76 ml/kg, rat plasma, Low group: single i.v. 1.76 ml/kg of 5 times concentrated ASEP, mean ± SD, n=3, read-out: MRT0-∞
  MRT inf: 25.8 ± 1.2 min
[1]; male, Sprague-Dawley, rat, plasma, iv, 1.76 ml/kg, rat plasma, Low group: single i.v. 1.76 ml/kg of 5 times concentrated ASEP, mean ± SD, n=3, read-out: Vd
  Vd: 0.26 ± 0.01 L
[1]; male, Sprague-Dawley, rat, plasma, iv, 1.76 ml/kg, rat plasma, Low group: single i.v. 1.76 ml/kg of 5 times concentrated ASEP, mean ± SD, n=3, read-out: t 1/2 (converted)
  half-life: 21.6 ± 0.6 min
[1]; male, Sprague-Dawley, rat, plasma, iv, 3.52 ml/kg, rat plasma, High group: single i.v. 3.52 ml/kg of 5 times concentrated ASEP, mean ± SD, n=3, read-out: AUC0-t
  AUC(0-t): 3410 ng·h/mL
[1]; male, Sprague-Dawley, rat, plasma, iv, 3.52 ml/kg, rat plasma, High group: single i.v. 3.52 ml/kg of 5 times concentrated ASEP, mean ± SD, n=3, read-out: AUC0-∞
  AUC(0-inf): 3420 ng·h/mL
[1]; male, Sprague-Dawley, rat, plasma, iv, 3.52 ml/kg, rat plasma, High group: single i.v. 3.52 ml/kg of 5 times concentrated ASEP, mean ± SD, n=3, read-out: Cl (converted)
  clearance: 9 mL/min
[1]; male, Sprague-Dawley, rat, plasma, iv, 3.52 ml/kg, rat plasma, High group: single i.v. 3.52 ml/kg of 5 times concentrated ASEP, mean ± SD, n=3, read-out: MRT0-t
  MRT last: 25.2 min
[1]; male, Sprague-Dawley, rat, plasma, iv, 3.52 ml/kg, rat plasma, High group: single i.v. 3.52 ml/kg of 5 times concentrated ASEP, mean ± SD, n=3, read-out: MRT0-∞
  MRT inf: 25.8 min
[1]; male, Sprague-Dawley, rat, plasma, iv, 3.52 ml/kg, rat plasma, High group: single i.v. 3.52 ml/kg of 5 times concentrated ASEP, mean ± SD, n=3, read-out: Vd
  Vd: 0.64 L
[1]; male, Sprague-Dawley, rat, plasma, iv, 3.52 ml/kg, rat plasma, High group: single i.v. 3.52 ml/kg of 5 times concentrated ASEP, mean ± SD, n=3, read-out: t 1/2 (converted)
  half-life: 48.6 min
Zebrafish model
  effect on VEGF-induced angiogenesis: significant inhibitory effects
[2]
  effect on VEGF-induced angiogenesis: significant inhibitory effects
Insulin resistance [3]
  effect on insulin resistance: improve insulin resistance

## COc1cc(/C=C/CO)cc(OC)c1O[C@@H]1O[C@H](CO)[C@@H](O)[C@H](O)[C@H]1O [EB, eleutheroside B]
[4]; [7]
  Stability, RE: 1.92%
[4]; [8]
  Stability, RE: 12.12%
[4]; [9]
  Stability, RE: -0.97%
[4]; [10]
  Stability, RE: -4.48%
[4]; [11]
  Stability, RE: -5.59%
[4]; [12]
  Stability, RE: -14.91%
[4]; [13]
  Stability, RE: -4.14%
[4]; [14]
  Stability, RE: 4.10%
[4]; [15]
  Stability, RE: -0.75%
[4]; [16]
  Stability, RE: 6.11%
[4]; [17]
  Stability, RE: -8.20%
[4]; [18]
  Stability, RE: -4.54%
[1]; PK time points 2.5, 5, 10, 15 and 20 min after single i.v. 3.52 ml/kg of 5 times concentrated ASEP, preliminary examination
  ingredient concentration in rat plasma: > 0.5 ng/mL
[1]; male, Sprague-Dawley, rat, in vivo, iv, 1.76 ml/kg, read-out: AUC0-t
  AUC(0-t): 3040 ng·h/mL
[1]; male, Sprague-Dawley, rat, in vivo, iv, 1.76 ml/kg, read-out: AUC0-∞
  AUC(0-inf): 3060 ng·h/mL
[1]; male, Sprague-Dawley, rat, in vivo, iv, 1.76 ml/kg, read-out: Cl (converted)
  clearance: 9.17 mL/min
[1]; male, Sprague-Dawley, rat, in vivo, iv, 1.76 ml/kg, read-out: MRT0-t
  MRT last: 26.4 min
[1]; male, Sprague-Dawley, rat, in vivo, iv, 1.76 ml/kg, read-out: MRT0-∞
  MRT inf: 31.2 ± 0.6 min
[1]; male, Sprague-Dawley, rat, in vivo, iv, 1.76 ml/kg, read-out: Vd
  Vd: 3.45 ± 0.1 L
[1]; male, Sprague-Dawley, rat, in vivo, iv, 1.76 ml/kg, read-out: t 1/2 (converted)
  half-life: 261 ± 6 min
[1]; male, Sprague-Dawley, rat, in vivo, iv, 3.52 ml/kg, read-out: AUC0-t
  AUC(0-t): 4530 ng·h/mL
[1]; male, Sprague-Dawley, rat, in vivo, iv, 3.52 ml/kg, read-out: AUC0-∞
  AUC(0-inf): 4540 ng·h/mL
[1]; male, Sprague-Dawley, rat, in vivo, iv, 3.52 ml/kg, read-out: Cl (converted)
  clearance: 12.3 mL/min
[1]; male, Sprague-Dawley, rat, in vivo, iv, 3.52 ml/kg, read-out: MRT0-t
  MRT last: 26.4 ± 0.6 min
[1]; male, Sprague-Dawley, rat, in vivo, iv, 3.52 ml/kg, read-out: MRT0-∞
  MRT inf: 30 ± 1.2 min
[1]; male, Sprague-Dawley, rat, in vivo, iv, 3.52 ml/kg, read-out: Vd
  Vd: 3.38 ± 1.15 L
[1]; male, Sprague-Dawley, rat, in vivo, iv, 3.52 ml/kg, read-out: t 1/2 (converted)
  half-life: 190 ± 65.4 min
[1]; male, Sprague-Dawley, rat, in vivo, iv, read-out: t 1/2 (elimination in rat blood)
  half-life: ≥ 190 min
[5]
  PK profile in cerebral ischemia-reperfusion rats compared with the normal group: accumulated
Insulin resistance [6]
  effect on insulin resistance: improve insulin resistance

## C=C[C@@H]1C2=CCOC(=O)C2=CO[C@H]1O[C@@H]1O[C@H](CO)[C@@H](O)[C@H](O)[C@H]1O [GPS, gentiopicroside]
[4]; [7]
  Stability, RE: -9.29%
[4]; [8]
  Stability, RE: 10.09%
[4]; [9]
  Stability, RE: 2.52%
[4]; [10]
  Stability, RE: -13.56%
[4]; [11]
  Stability, RE: -10.12%
[4]; [12]
  Stability, RE: -6.72%
[4]; [13]
  Stability, RE: -2.10%
[4]; [14]
  Stability, RE: 14.78%
[4]; [15]
  Stability, RE: 1.22%
[4]; [16]
  Stability, RE: 9.68%
[4]; [17]
  Stability, RE: 12.72%
[4]; [18]
  Stability, RE: 4.29%
[1]; [19]
  AUC0-∞: 118.37 ± 6.75 ng·h/mL
  AUC(0-t): 108.95 ± 5.92 ng·h/mL
  Cl: 3.83 ± 0.23 L/h
  MRT0-t: 15.6 ± 0.6 min
  MRT0-∞: 21 ± 2.4 min
  Vd: 1.45 ± 0.16 L
  t 1/2: 15.6 ± 2.4 min
[1]; male, Sprague-Dawley, rat, in vivo, iv, AUC0-t
  AUC(0-t): 63.6 ± 2.53 ng·h/mL
[1]; male, Sprague-Dawley, rat, in vivo, iv, AUC0-∞
  AUC(0-inf): 68.2 ± 1.88 ng·h/mL
[1]; male, Sprague-Dawley, rat, in vivo, iv, Cl
  clearance: 55.3 mL/min
[1]; male, Sprague-Dawley, rat, in vivo, iv, MRT0-t
  MRT last: 21.6 ± 0.6 min
[1]; male, Sprague-Dawley, rat, in vivo, iv, MRT0-∞
  MRT inf: 25.2 ± 3 min
[1]; male, Sprague-Dawley, rat, in vivo, iv, Vd
  Vd: 1.08 ± 0.26 L
[1]; male, Sprague-Dawley, rat, in vivo, iv, t 1/2
  half-life: 13.8 ± 3.6 min
AKT
  effect on phosphorylation of AKT: activate the phosphorylation of AKT
